Experiments:
Cavia porcellus [1] = assay: Percent inhibition effect of ONO-5046 on the increase of skin capillary permeability induced by HNE in guinea pigs in vivo on administration of 3 mg/Kg dose iv in guinea pig; format: functional
Cavia porcellus [2] = assay: Percent inhibition effect of ONO-5046 on the increase of skin capillary permeability induced by HNE in guinea pigs in vivo on administration of 10 mg/Kg dose iv in guinea pig; format: functional

Structure (SMILES): CC(C)(C)C(=O)Oc1ccc(S(=O)(=O)Nc2ccccc2C(=O)NCC(=O)O)cc1
- inhibition in vivo at 3 mg/kg (Cavia porcellus [1]): 31.7%
- inhibition in vivo at 10 mg/kg (Cavia porcellus [2]): 51.8%

— ChEMBL document CHEMBL1134889, “Clarification of mechanism of human sputum elastase inhibition by a new inhibitor, ONO-5046, using electrospray ionization mass spectrometry” (Bioorg Med Chem Lett, 2002)
